Test results as given in ChEMBL document CHEMBL4732239, “Novel molecule combinations and corresponding hybrids targeting artemisinin-resistant Plasmodium falciparum parasites” (Bioorg Med Chem Lett, 2021).

Experiments:
Plasmodium falciparum [1] = assay: Antimalarial activity against Plasmodium falciparum assessed as difference of time taken for recrudescence Plasmodium falciparum […] between ring stage artemisinin-sensitive Plasmodium falciparum F32-TEM measured at 7 uM after 48 hrs; type: functional
[2] = Selective index, ratio of CC50 for African green monkey Vero cells to IC50 for plasmodium falciparum
Plasmodium falciparum [3] = assay: Antimalarial activity against ring stage artemisinin-resistant Plasmodium falciparum F32-ART5 assessed as time taken for recrudescence by measuring parasitemia at 7 uM after 48 hrs; type: functional
Plasmodium falciparum [4] = assay: Antimalarial activity against ring stage artemisinin-sensitive Plasmodium falciparum F32-TEM assessed as time taken for recrudescence by measuring parasitemia at 7 uM after 48 hrs; type: functional
[5] = Cytotoxicity against African green monkey Vero cells assessed as inhibition of cell proliferation; type: cell-based; settings: chlorocebus sabaeus
Plasmodium falciparum [6] = assay: Antimalarial activity against artemisinin-sensitive Plasmodium falciparum F32-TEM by SYBR green dye based fluorescence assay; type: functional, organism-based
Plasmodium falciparum [7] = assay: Antimalarial activity against Plasmodium falciparum assessed as difference of time taken for recrudescence Plasmodium falciparum F32-ART5 between ring stage artemisinin-sensitive Plasmodium falciparum F32-TEM measured at 1 uM after 48 hrs
Plasmodium falciparum [8] = assay: Antimalarial activity against ring stage artemisinin-sensitive Plasmodium falciparum F32-TEM assessed as time taken for recrudescence by measuring parasitemia at 1 uM after 48 hrs; type: functional
Plasmodium falciparum [9] = assay: Antimalarial activity against ring stage artemisinin-resistant Plasmodium falciparum F32-ART5 assessed as time taken for recrudescence by measuring parasitemia pretreated with dihydroartemisinin for 6 hrs followed by treated at 7 uM for 48 hrs by Quiescent-stage Survival Assay; type: functional
Plasmodium falciparum [10] = assay: Antimalarial activity against ring stage artemisinin-resistant Plasmodium falciparum F32-ART5 assessed as time taken for recrudescence by measuring parasitemia at 20 uM after 48 hrs; type: functional
Plasmodium falciparum [11] = assay: Antimalarial activity against Plasmodium falciparum assessed as difference of time taken for recrudescence Plasmodium falciparum […] between ring stage artemisinin-sensitive Plasmodium falciparum F32-TEM measured at 20 uM after 48 hrs; type: functional
Plasmodium falciparum [12] = assay: Antimalarial activity against ring stage artemisinin-sensitive Plasmodium falciparum F32-TEM assessed as time taken for recrudescence by measuring parasitemia at 20 uM after 48 hrs; type: functional
Plasmodium falciparum [13] = assay: Antimalarial activity against ring stage artemisinin-sensitive Plasmodium falciparum F32-TEM assessed as time taken for recrudescence by measuring parasitemia at 18 uM after 48 hrs; type: functional
Plasmodium falciparum [14] = assay: Antimalarial activity against Plasmodium falciparum assessed as difference of time taken for recrudescence Plasmodium falciparum […] between ring stage artemisinin-sensitive Plasmodium falciparum F32-TEM measured at 18 uM after 48 hrs; type: functional
Plasmodium falciparum [15] = assay: Antimalarial activity against ring stage artemisinin-resistant Plasmodium falciparum F32-ART5 assessed as time taken for recrudescence by measuring parasitemia at 18 uM after 48 hrs; type: functional
Plasmodium falciparum [16] = assay: Antimalarial activity against ring stage artemisinin-resistant Plasmodium falciparum F32-ART5 assessed as time taken for recrudescence by measuring parasitemia at 1 uM after 48 hrs; type: functional
Plasmodium falciparum [17] = assay: Antimalarial activity against ring stage artemisinin-resistant Plasmodium falciparum F32-ART5 assessed as time taken for recrudescence by measuring parasitemia pretreated with dihydroartemisinin for 6 hrs followed by treated at 200 nM for 48 hrs by Quiescent-stage Survival Assay; type: functional

| SMILES | Time (Plasmodium falciparum [1]) | Ratio CC50/IC50 [2] | Time (Plasmodium falciparum [3]) | Time (Plasmodium falciparum [4]) | CC50 [5] | IC50 (Plasmodium falciparum [6]) | Time (Plasmodium falciparum [7]) | Time (Plasmodium falciparum [8]) | Time (Plasmodium falciparum [9]) | also measured |
| --- | --- | --- | --- | --- | --- | --- | --- | --- | --- | --- |
| Cc1[nH]c(C)c(-c2ccc(Oc3ccc(OC(F)(F)F)cc3)cc2)c(=O)c1Cl | 3 days | 190 | 2 days | 8 days | 8 µM | 42 nM |  |  |  |  |
| Cl.O=C(CCCC(=O)O[C@H](c1cc(C(F)(F)F)nc2c(C(F)(F)F)cccc12)[C@@H]1CCCCN1)OC1=C([C@H]2CC[C@H](c3ccc(Cl)cc3)CC2)C(=O)c2ccccc2C1=O |  | 4545 |  |  | 5 µM | 1.1 nM | 0 days | 14 days |  |  |
| O=C(CCCCCCC(=O)Oc1cc(Cl)ccc1Oc1ccc(Cl)cc1Cl)OC1=C([C@H]2CC[C@H](c3ccc(Cl)cc3)CC2)C(=O)c2ccccc2C1=O | 4 days | 10000 | 9 days | 12 days | 6 µM | 0.6 nM |  |  | 10 days |  |
| Cc1nc(C)c(-c2ccc(Oc3ccc(OC(F)(F)F)cc3)cc2)c(OC(=O)CCCCCCC(=O)Oc2cc(Cl)ccc2Oc2ccc(Cl)cc2Cl)c1Cl | 0.6 days | >710 | 3 days | 4 days | > 120 µM | 169 nM |  |  |  | Time (Plasmodium falciparum [10]): 2 days; Time (Plasmodium falciparum [11]): 1 days; Time (Plasmodium falciparum [12]): 3 days |
| Cl.O=C(CCC(=O)O[C@H](c1cc(C(F)(F)F)nc2c(C(F)(F)F)cccc12)[C@@H]1CCCCN1)OC1=C([C@H]2CC[C@H](c3ccc(Cl)cc3)CC2)C(=O)c2ccccc2C1=O |  | 6660 |  |  | 4 µM | 0.6 nM | 0 days | 14 days |  |  |
| O[C@@H](c1cc(C(F)(F)F)nc2c(C(F)(F)F)cccc12)[C@H]1CCCCN1 [(S,R)-MEFLOQUINE] |  | 241 |  |  | 21 µM | 87 nM |  | >30 days |  |  |
| C[C@@H]1CC[C@H]2[C@@H](C)C(=O)O[C@@H]3O[C@@]4(C)CC[C@@H]1[C@]32OO4 [ARTEMISININ] |  |  |  |  |  | 18 nM |  |  |  | Time (Plasmodium falciparum [13]): 22 days; Time (Plasmodium falciparum [14]): 12.5 days; Time (Plasmodium falciparum [15]): 9 days |
| O=C1C(O)=C([C@H]2CC[C@H](c3ccc(Cl)cc3)CC2)C(=O)c2ccccc21 [ATOVAQUONE] | <=1 day | 257 | 21 days | 23 days | 0.5 µM | 2.1 nM | 3 days | 14 days | 18 days | Time (Plasmodium falciparum [16]): 11 days |
| CCN(CC)CCCC(C)Nc1ccnc2cc(Cl)ccc12 (stereo unspecified) [CHLOROQUINE] |  |  |  |  |  |  |  |  |  | Time (Plasmodium falciparum [17]): 8 days |
| Oc1cc(Cl)ccc1Oc1ccc(Cl)cc1Cl [TRICLOSAN] |  | 5 | 5 days | 6 days | 25 µM |  |  |  | 7 days |  |
